Data reported in article PMC11952966 (2025).
Each block holds one compound with its values, some of them ahead of it.

How the values were obtained:
Assay in all cases: ITC
[1] = tested on: NC423 (DNA, aptamer) CTTACGACTTGTTCTGAGGGTCAACGGTGGTGTAGTTAGTCGTAAG
[2] = tested on: NC1947 (DNA, aptamer) CTTACGACACAGGGCGTGGAGTGGCTGGGCTTCAAGGGGTCGTAAG
[3] = tested on: NCB (DNA, aptamer) CTTACGACACAGGGCGTGGAGGAGCTGGGCTATTAGGGGTCGTAAG
[4] = tested on: OM7 (DNA, aptamer) GGGACGACATCGTAGGGGCACACGCTTAACGGGCTGATGTCGTCCC
[5] = tested on: FXd (DNA, aptamer) GGGACGACGGTGTGGGGGTAGGGGGTGTGGGAAGCGGCGTCGTCCC; conditions: 23 °C; selection buffer (Supplementary Table S1); one-site model

KD [1]: 22 nM | KD [2]: 123 nM | KD [3]: 1000 nM
SMILES: COC(=O)[C@H]1[C@@H](OC(=O)c2ccccc2)C[C@@H]2CC[C@H]1N2C

KD [4]: 1400 nM
SMILES: COc1ccc2c3c1O[C@H]1C(=O)CC[C@@]4(O)[C@@H](C2)N(C)CC[C@]314

KD [5]: 27400 nM
SMILES: Cc1c(Nc2ncccc2C(=O)O)cccc1C(F)(F)F
